These molecules were tested against GST-hRIPK1 (8-327) (Homo sapiens (Human), UniProt Q13546) (assay: Fluorescent Polarization Binding (FP Binding) assay, RIPK1). Conditions: 10 nM GST-hRIPK1 (8-327), 5 nM fluorescent-labeled ligand, RT, 30 min, mean of at least two independent experiments.
Procedure, shortened: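 Binding by fluorescence polarisation at RT: 10 nM baculovirus-expressed GST-hRIPK1 (8-327) and 5 nM fluorescent ligand, 30 min, in 50 mM HEPES pH 7.5, 50 mM MgCl2, 0.02% CHAPS, 1% DMSO. FP read at ex 531/em 595 nm. IC50 from normalised percent inhibition, mean of ≥2 experiments.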

GST-hRIPK1 (8-327), sequence (Q13546 8-327): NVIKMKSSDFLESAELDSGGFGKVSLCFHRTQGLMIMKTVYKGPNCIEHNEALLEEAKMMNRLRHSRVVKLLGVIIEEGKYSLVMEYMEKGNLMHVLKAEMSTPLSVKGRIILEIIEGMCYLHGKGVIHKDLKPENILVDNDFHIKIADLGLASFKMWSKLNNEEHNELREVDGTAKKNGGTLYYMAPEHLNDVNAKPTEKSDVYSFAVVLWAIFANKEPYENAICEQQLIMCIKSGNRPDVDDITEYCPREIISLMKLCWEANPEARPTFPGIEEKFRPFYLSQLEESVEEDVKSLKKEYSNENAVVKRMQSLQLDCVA

N#Cc1cncc2c1OCCN(C(=O)C1(F)CCN(c3cccnn3)CC1)C2 [Example 116, 4-(4-fluoro-1-pyridazin-3-yl-piperidine-4-carbonyl)-3,5-dihydro-2H-pyrido[3,4-f][1,4]oxazepine-9-carbonitrile] and N#Cc1cncc2c1OCCN(C(=O)C1(F)CCN(c3ccncn3)CC1)C2 [Example 88, 4-(4-fluoro-1-pyrimidin-4-yl-piperidine-4-carbonyl)-3,5-dihydro-2H-pyrido[3,4-f][1,4]oxazepine-9-carbonitrile] fall in the same range of IC50: 0.1 to 1 µM for the first, 0.1 to 1 µM for the second.

CC(C(=O)N1CCOc2c(C#N)cncc2C1)C1CC1 (centres unmarked) [Example 146, 4-(2-cyclopropylpropanoyl)-3,5-dihydro-2H-pyrido[3,4-f][1,4]oxazepine-9-carbonitrile] and C[C@@H]1C[C@]1(C)C(=O)N1CCOc2c(C#N)cncc2C1 [Example 65, 4-[(1S,2R)-1,2-dimethylcyclopropanecarbonyl]-3,5-dihydro-2H-pyrido[3,4-f][1,4]oxazepine-9-carbonitrile] fall in the same range of IC50: 0.1 to 1 µM for the first, 0.1 to 1 µM for the second.

N#Cc1cncc2c1OCCN(C(=O)C1(F)CCN(c3ncc(Cl)cn3)CC1)C2 [Example 164, 4-[1-(5-chloropyrimidin-2-yl)-4-fluoro-piperidine-4-carbonyl]-3,5-dihydro-2H-pyrido[3,4-f][1,4]oxazepine-9-carbonitrile] and N#Cc1cncc2c1OCCN(C(=O)C1(Cl)CCN(c3ncc(F)cn3)CC1)C2 [Example 177, 4-[4-chloro-1-(5-fluoropyrimidin-2-yl)piperidine-4-carbonyl]-3,5-dihydro-2H-pyrido[3,4-f][1,4]oxazepine-9-carbonitrile] fall in the same range of IC50: 0.0001 to 0.1 µM for the first, 0.0001 to 0.1 µM for the second.

Compared with CC(C(=O)N1CCOc2c(F)cccc2C1)C(F)(F)F (centres unmarked) [Example 17, 3,3,3-trifluoro-1-(9-fluoro-3,5-dihydro-2H-1,4-benzoxazepin-4-yl)-2-methyl-propan-1-one], CC(C)(C(=O)N1CCOc2cc(F)ccc2C1)C(F)F [Example 68, 3,3-difluoro-1-(8-fluoro-3,5-dihydro-2H-1,4-benzoxazepin-4-yl)-2,2-dimethyl-propan-1-one] is lower in IC50: over 1 µM for the first, 0.1 to 1 µM for the second. The second is the more potent here.

Compared with COC1(C(=O)N2Cc3cncc(C#N)c3OC[C@H]2C)CCN(c2ncc(F)cn2)CC1 [Example 105, (3R)-4-[1-(5-fluoropyrimidin-2-yl)-4-methoxy-piperidine-4-carbonyl]-3-methyl-3,5-dihydro-2H-pyrido[3,4-f][1,4]oxazepine-9-carbonitrile], CCC(C)C(=O)N1Cc2cncc(C#N)c2OC[C@H]1C (stereo partly drawn) [Example 76, (3R)-3-methyl-4-(2-methylbutanoyl)-3,5-dihydro-2H-pyrido[3,4-f][1,4]oxazepine-9-carbonitrile] is higher in IC50: 0.0001 to 0.1 µM for the first, 0.1 to 1 µM for the second. The first is the more potent here.

Same assay, conditions: GST-hRIPK1 (8-327), mean of at least two independent experiments

First: CC1(C(=O)N2CCOc3c(C#N)cncc3C2)CCN(c2ncc(F)cn2)CC1(F)F (single isomer, unassigned) [Example 284, 4-[3,3-Difluoro-1-(5-fluoropyrimidin-2-yl)-4-methyl-piperidine-4-carbonyl]-3,5-dihydro-2H-pyrido[3,4-f][1,4]oxazepine-9-carbonitrile]
Second: N#Cc1cncc2c1OCCN(C(=O)C1(F)CCN(c3ncc(F)cn3)CC1(F)F)C2 (single isomer, unassigned) [Example 295, 4-[3,3,4-Trifluoro-1-(5-fluoropyrimidin-2-yl)piperidine-4-carbonyl]-3,5-dihydro-2H-pyrido[3,4-f][1,4]oxazepine-9-carbonitrile]
The IC50 of the first is lower: 0.0001 to 0.1 µM for the first, 0.1 to 1 µM for the second.

O=C(C1CCN(c2ccnc3ccnn23)CC1(F)F)N1CCOc2c(F)cncc2C1 (centres unmarked) [Example 252, (3,3-difluoro-1-pyrazolo[1,5-a]pyrimidin-7-yl-4-piperidyl)-(9-fluoro-3,5-dihydro-2H-pyrido[3,4-f][1,4]oxazepin-4-yl)methanone] and N#Cc1cncc2c1OCCN(C(=O)C1(F)CCN(c3ccnc4ncnn34)CC1)C2 [Example 212, 4-[4-fluoro-1-([1,2,4]triazolo[1,5-a]pyrimidin-7-yl)piperidine-4-carbonyl]-3,5-dihydro-2H-pyrido[3,4-f][1,4]oxazepine-9-carbonitrile] fall in the same range of IC50: 0.1 to 1 µM for the first, 0.1 to 1 µM for the second.
